In patent US12559471B2, “1,5-dihydro-2,4-benzodiazepine-3-one derivative and application thereof” (JIANGSU NHWA PHARMACEUTICAL CO., LTD, priority 2020, dated 2026):
Like-named read-outs stand apart in the source and are kept apart here.

Experiments:
5-HT2A receptor = 5-HT2A receptor (Homo sapiens (Human), UniProt P28223); test: Competitive 5-HT2A receptor binding assay (3H-Ketanserin, CHO-5-HT2A membrane); details: for 2C/2A: ratio of 5-HT2C Ki to 5-HT2A Ki
Description: 1) Preparation of CHO-5-HT2A Receptor Membrane
The precipitate was collected, and the supernatant was discarded. The solution B was added into the precipitate. […] The supernatant was carefully discarded, and the solution B was added into the precipitate again. […] The precipitate obtained was stored at −80° C.
1) Competitive 5-HT2A Receptor Binding Assay
Step 2: 100 μL of the membrane preparation was added into each reaction tube.
After the filtration, the filter membrane was dried at 60° C. and added into a scintillation disc attached with a bottom membrane, which was then added with 40 μL of scintillation liquid, sealed with a top membrane, and left to stand.

5-HT2C receptor = 5-HT2C receptor (Rattus norvegicus (Rat), UniProt P08909)
Description: 2) Preparation of 5-HT2C Membrane
The rat cortex was taken out of a refrigerator at −80° C. and thawed spontaneously. The solution A was added, and the mixture was homogenized for 3-4 s at 4th gear for a total of 4 times and centrifuged at 50000 g for 25 min at 4° C. The supernatant was discarded, and the solution A was added into the precipitate. The mixture was mixed well using a vortex mixer and centrifuged at 50000 g for 25 min at 4° C. (repeated twice). The supernatant was discarded after the centrifugation, and the precipitate was stored at −80° C. for later use.
2) Competitive 5-HT2C Receptor Binding Assay
Step 1: the prepared membrane was suspended in the homogenate B to obtain a 210 mg/mL membrane suspension for later use.
Step 2: 100 μL of the membrane suspension was added into each reaction tube.
Step 3: 100 μL of the solution B was added into a total binding tube (TB), 100 μL of Ketanserin (final concentration: 1.0×10^−5 M) was added into a non-specific binding tube (NB), and 100 μL of test compound was added into each compound binding tube (CB).
Step 4: 10 μL of radioligand ^3H-Mesulergine was added into each reaction tube to reach a final concentration of 3 nM.
Step 5: each reaction tube was incubated at 37° C. for 25 min. After the reaction was completed, the binding ligands were rapidly filtered under reduced pressure, wherein the Whatman test paper GF/C was washed with 0.5% PEI solution 1 h in advance. The filter membrane was fully washed with cold Tris buffer solution, taken out and put into a 4 mL scintillation disc, which was then added with 1 mL toluene scintillation solution and shaken for mixing well.
Step 6: the scintillation disc was put into a liquid scintillation counter for counting.

[1] = test system: DOI-induced head shaking behavior of mice; test: DOI-induced head shaking (head thrust) test in mice; type: in vivo; details: Mus musculus, intragastric, DOI 1 mg/kg i.p., 0-20 min, read-out: ED50 for inhibiting the DOI-induced head shaking behavior
Description: 1. Head Thrust Test in Mice
Mice were stratified according to body weight and then randomly divided into a model control group, a blank control group and drug administration groups. 1 h after the intragastric administration of a vehicle or a drug, the animals were placed in a beaker (with the diameter of 13 cm and the height of 19 cm) paved with fresh padding, and were injected with a modeling drug DOI ((±)-1-(2,5-dimethoxy-4-iodophenyl)-2-aminopropane hydrochloride or (±)-2,5-dimethoxy-4-iodoamphetamine hydrochloride) intraperitoneally at a dose of 1 mg/kg. The head shaking times of the mice during the 0-20 min after the intraperitoneal injection of DOI were recorded. The head shaking behavior is defined as a rapid rotational twitching or wet dog-like shaking of the mouse head, which is distinguished from normal grooming or exploring behavior.

[2] = test system: MK-801-induced high activity behavior of mice; test: Dizocilpine (MK-801)-induced high activity test in mice; type: in vivo; details: Mus musculus, 1 h, intragastric, MK-801 0.3 mg/kg i.p., 60 min, read-out: ED50 for inhibiting the MK-801-induced high activity behavior
Description: 2. Dizocilpine (MK-801)-Induced High Activity Test in Mice 2.1 Test Method
Mice were stratified according to body weight and then randomly divided into a model control group, a blank control group and drug administration groups. After the administration of a test substance (or a control substance), the mice were placed into an autonomous activity test box (a black polyethylene box with the specification of 29 cm×29 cm×30 cm) for adaptation, and injected with MK-801 at 0.3 mg/kg intraperitoneally 1 h after the intragastric administration. The mice were then placed into the autonomous activity test box for video recording for 60 min. Video analysis was performed after the video recording to evaluate the activity of the mice.

[3] = CHO-5-HT2A membrane, 3H-Ketanserin, read-out: 5-HT2A (Ki value)
[4] = read-out: 5-HT2C (Ki value), rat cortex membrane, 3H-Mesulergine

5-HT2A receptor, sequence (P28223 whole entry): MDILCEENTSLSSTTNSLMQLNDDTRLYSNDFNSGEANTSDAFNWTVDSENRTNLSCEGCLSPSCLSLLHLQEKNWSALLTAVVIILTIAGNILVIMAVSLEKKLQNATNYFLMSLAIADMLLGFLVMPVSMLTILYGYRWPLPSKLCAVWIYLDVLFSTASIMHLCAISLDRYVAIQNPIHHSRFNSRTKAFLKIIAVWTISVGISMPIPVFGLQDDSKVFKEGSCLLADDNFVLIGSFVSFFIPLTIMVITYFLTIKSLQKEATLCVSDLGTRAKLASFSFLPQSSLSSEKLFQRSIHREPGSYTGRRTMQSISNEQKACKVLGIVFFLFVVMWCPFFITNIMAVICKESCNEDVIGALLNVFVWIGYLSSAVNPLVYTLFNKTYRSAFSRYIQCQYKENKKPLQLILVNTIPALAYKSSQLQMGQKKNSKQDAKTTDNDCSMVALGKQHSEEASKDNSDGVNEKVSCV
5-HT2C receptor, sequence (P08909 33-460): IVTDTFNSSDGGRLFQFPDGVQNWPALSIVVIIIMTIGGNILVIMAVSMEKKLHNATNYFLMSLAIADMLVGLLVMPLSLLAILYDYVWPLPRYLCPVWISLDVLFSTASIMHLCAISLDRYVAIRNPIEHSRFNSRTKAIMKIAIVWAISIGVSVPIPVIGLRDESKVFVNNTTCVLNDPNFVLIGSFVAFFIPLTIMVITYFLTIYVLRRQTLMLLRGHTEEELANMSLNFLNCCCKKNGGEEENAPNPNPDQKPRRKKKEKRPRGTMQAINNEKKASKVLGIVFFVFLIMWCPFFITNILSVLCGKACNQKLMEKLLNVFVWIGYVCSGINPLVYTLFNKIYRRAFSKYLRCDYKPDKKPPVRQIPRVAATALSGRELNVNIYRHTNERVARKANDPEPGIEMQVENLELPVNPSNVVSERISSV

| SMILES | Ki (5-HT2A receptor; [3]) | 2C/2A (5-HT2A receptor) | Ki (5-HT2C receptor; [4]) | further results |
| --- | --- | --- | --- | --- |
| CC(C)CNc1ccc(CN2Cc3ccc(F)cc3CN(C3CCN(C)CC3)C2=O)cc1 [NH-K-A19007, 8-fluoro-2-(1-methylpiperidin-4-yl)-4-[[4-(2-methylpropylamino)phenyl]methyl]-1,5-dihydro-2,4-benzodiazepine-3-one] | 2.72 nM | 10.040 | 27.3 nM |  |
| CC(C)Cc1ccc(CN2Cc3ccc(F)cc3CN(C3CCN(C)CC3)C2=O)cc1 [NH-K-A19008, 8-fluoro-2-(1-methylpiperidin-4-yl)-4-[[4-(2-methylpropyl)phenyl]methyl]-1,5-dihydro-2,4-benzodiazepine-3-one] | 5.29 nM | 7.999 | 42.4 nM |  |
| COc1ccc(CN2Cc3ccc(F)cc3CN(C3CCN(C)CC3)C2=O)cc1 [NH-K-A19009, 8-fluoro-2-(1-methylpiperidin-4-yl)-4-[(4-methoxyphenyl)methyl]-1,5-dihydro-2,4-benzodiazepine-3-one] | 2.99 nM | 0.679 | 2.03 nM |  |
| CN1CCC(N2Cc3cc(F)ccc3CN(Cc3ccc(CC(C)(C)O)cc3)C2=O)CC1 [NH-K-A19010, 7-fluoro-2-[[4-(2-hydroxy-2-methylpropyl)phenyl]methyl]-4-(1-methylpiperidin-4-yl)-1,5-dihydro-2,4-benzodiazepin-3-one] | 20.1 nM | 0.91 | 18.2 nM |  |
| CC(C)Oc1ccc(CN2Cc3ccc(F)cc3CN(C3CCN(C)CC3)C2=O)c(F)c1 [NH-K-A19011, 8-fluoro-2-(1-methylpiperidin-4-yl)-4-[[(2-fluoro-4-isopropoxy)phenyl]methyl]-1,5-dihydro-2,4-benzodiazepine-3-one] | 12.7 nM |  |  |  |
| CC(C)Oc1ccc(CN2Cc3ccc(F)cc3CN(C3CCN(C)CC3)C2=O)cc1F [NH-K-A19012, 8-fluoro-2-(1-methylpiperidin-4-yl)-4-[[(3-fluoro-4-isopropoxy)phenyl]methyl]-1,5-dihydro-2,4-benzodiazepine-3-one] | 0.947 nM | 9.882 | 9.36 nM | ED50 [1]: 0.3 mg/kg; ED50 [2]: 3.73 mg/kg |
| CC(C)Oc1ccc(CN2Cc3ccc(F)cc3CN(C3CCN(C)CC3)C2=O)cn1 [NH-K-A19013, 8-fluoro-2-(1-methylpiperidin-4-yl)-4-[[(6-isopropoxy)pyridin-3-yl]methyl]-1,5-dihydro-2,4-benzodiazepine-3-one] | 9.78 nM |  |  |  |
| CC(C)COc1ccc(CN2Cc3ccc(F)cc3CN([C@H]3CCN(C)C[C@H]3F)C2=O)cc1 [NH-K-A19014-0, (3R,4S)-8-fluoro-2-(1-methyl-3-fluoropiperidin-4-yl)-4-[[4-(2-methylpropoxy)phenyl]methyl]-1,5-di hydro-2,4-benzodiazepine-3-one] | 4.19 nM | 0.049 |  | Ki (5-HT2C receptor): 0.2 nM |
| CC(C)COc1ccc(CN2Cc3ccc(F)cc3CN([C@H]3CCN(C)C[C@@H]3F)C2=O)cc1 [NH-K-A19014-0A, (3S,4S)-8-fluoro-2-(1-methyl-3-fluoropiperidin-4-yl)-4-[[4-(2-methylpropoxy)phenyl]methyl]-1,5-dihydro-2,4-benzodiazepine-3-one] | 0.002 nM | 16029.47 |  | Ki (5-HT2C receptor): 26.1 nM |
| CC(C)COc1ccc(CN2Cc3ccc(F)cc3CN(C3CCN(C)C3)C2=O)cc1 (stereo not drawn) [NH-K-A19015] |  |  |  | Ki (5-HT2A receptor): 1.69 nM; Ki (5-HT2C receptor): 0.41 nM |
| CC(C)COc1ccc(CN2Cc3ccc(F)cc3CC3(CCN(C)CC3)C2=O)cc1 [NH-K-A19019, 7-fluoro-1′-methyl-2-[[4-(2-methylpropoxy)phenyl]methyl]-1,2-dihydrospiro[benzo[c]azepine-4,4′-piperidine]-3(5H)-one] | 53.3 nM |  |  |  |
| CC(C)COc1ccc(CN2Cc3ccccc3CN(C3CCN(C)CC3)C2=O)cc1 [NH-K-A19020, 2-(1-methylpiperidin-4-yl)-4-[[4-(2-methylpropoxy)phenyl]methyl]-1,5-dihydro-2,4-benzodiazepine-3-one] | 1.74 nM |  |  |  |
| CN1CCC(N2Cc3ccc(F)cc3CN(Cc3ccc(OC4CC4)cc3)C2=O)CC1 [NH-K-A19022, 4-[(4-cyclopropoxyphenyl)methyl]-7-fluoro-2-(1-methylpiperidin-4-yl)-1,5-dihydro-2,4-benzodiaze pine-3-one] | 0.15 nM | 8.76 | 1.33 nM |  |
| CC(C)COc1ccc(CN2Cc3cc(F)c(F)cc3CN(C3CCN(C)CC3)C2=O)cc1 [NH-K-A20001, 7,8-difluoro-2-(4-isobutoxybenzyl)-4-(1-methylpiperidin-4-yl)-1,2,4,5-tetrahydro-3H-benzo[e][1,3]diazepin-3-one] | 5.98 nM |  |  |  |
| CC(C)COc1ccc(CN2Cc3cc(Cl)ccc3CN(C3CCN(C)CC3)C2=O)cc1 [NH-K-A190017, 7-chloro-2-(1-methylpiperidin-4-yl)-4-[[4-(2-methylpropoxy)phenyl]methyl]-1,5-dihydro-2,4-benzo diazepine-3-one] | 1.63 nM | 298.694 | 486 nM |  |
